The text below walks through data of publication PMC6697681, “The predominance of nucleotidyl activation in bacterial phosphonate biosynthesis” (Nature Communications, 2019).

SMILES strings stand for the structures.

Assay [1] has as its target T1, Tde-PntC (Tde1415) (Treponema denticola, UniProt Q73MU2).
T1 construct: full two-domain protein (N-terminal PntC, C-terminal AEPT), C-terminal His tag, pET21b (pGH3000), E. coli BL21(DE3); ~70 kDa monomer, dimer ~146 kDa by DLS
In words: X-ray crystal structure, […] Å. The format is binding. The settings on record: PntC active site, two Mg2+; crystallised with 5 mM CTP and 5 mM AEP.

In another assay the target is T2, Spn-LicC (Streptococcus pneumoniae, UniProt Q8DPI6).
T2 construct: monomer by DLS
Description: coupled pyrophosphate release assay (EnzChek, MESG/PNP), initial rates. The format is biochemical. The settings on record: substrate inhibition constant; saturating CTP (4 mM), 7 mM MgCl2, room temperature. The text has this: coupled pyrophosphate release assay (EnzChek, MESG/PNP), initial rates on Spn-LicC

A further assay has as its target T3, Ari-PntC (Ari1348) (Lancefieldella rimae, UniProt B9CM12).
T3 construct: codon-optimized gene in pET29 (pGH2000), C-terminal His6 tag, E. coli BL21(DE3), Ni-NTA and anion exchange; monomer by DLS
Described as above. The format is biochemical. The settings on record: substrate inhibition constant; saturating CTP (4 mM), 7 mM MgCl2, room temperature. The text has this: coupled pyrophosphate release assay (EnzChek, MESG/PNP), initial rates on Ari-PntC (Ari1348)

Assay [2] deals with T1, Tde-PntC (Tde1415). In words: X-ray crystal structure. The note with it: AEPT domain, non-covalently bound PLP. It is filed as binding.

T1 sequence (Q73MU2 whole entry): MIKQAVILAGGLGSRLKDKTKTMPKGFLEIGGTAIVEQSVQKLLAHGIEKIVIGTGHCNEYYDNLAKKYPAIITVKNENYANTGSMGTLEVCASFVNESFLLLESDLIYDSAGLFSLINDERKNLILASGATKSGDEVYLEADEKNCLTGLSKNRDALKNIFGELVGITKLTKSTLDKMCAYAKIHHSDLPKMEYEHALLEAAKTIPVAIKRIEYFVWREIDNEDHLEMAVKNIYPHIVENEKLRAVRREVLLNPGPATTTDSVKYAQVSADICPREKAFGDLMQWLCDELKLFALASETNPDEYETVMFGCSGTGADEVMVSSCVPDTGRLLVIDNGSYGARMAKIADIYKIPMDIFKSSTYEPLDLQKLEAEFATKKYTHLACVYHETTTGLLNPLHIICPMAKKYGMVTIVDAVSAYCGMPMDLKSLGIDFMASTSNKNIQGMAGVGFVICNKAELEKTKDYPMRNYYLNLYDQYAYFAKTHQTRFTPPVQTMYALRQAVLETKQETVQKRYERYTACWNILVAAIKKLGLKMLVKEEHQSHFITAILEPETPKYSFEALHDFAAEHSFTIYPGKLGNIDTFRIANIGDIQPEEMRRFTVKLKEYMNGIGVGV
T2 sequence (Q8DPI6 whole entry): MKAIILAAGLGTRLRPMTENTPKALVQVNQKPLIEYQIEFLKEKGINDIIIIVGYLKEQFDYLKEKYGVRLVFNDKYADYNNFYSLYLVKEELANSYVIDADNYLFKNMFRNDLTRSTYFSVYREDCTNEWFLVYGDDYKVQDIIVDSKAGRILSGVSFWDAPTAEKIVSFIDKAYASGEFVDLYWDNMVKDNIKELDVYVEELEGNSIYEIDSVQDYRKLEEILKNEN
T3 sequence (B9CM12 whole entry): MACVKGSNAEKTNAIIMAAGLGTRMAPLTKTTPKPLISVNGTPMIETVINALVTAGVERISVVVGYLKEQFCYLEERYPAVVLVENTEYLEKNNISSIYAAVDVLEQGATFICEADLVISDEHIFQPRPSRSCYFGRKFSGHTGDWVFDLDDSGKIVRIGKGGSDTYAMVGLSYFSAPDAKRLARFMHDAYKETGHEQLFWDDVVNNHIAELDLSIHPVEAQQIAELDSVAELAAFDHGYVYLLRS

Regarding `NCCP(=O)(O)OP(=O)(O)OC[C@H]1O[C@@H](n2ccc(N)nc2=O)[C@H](O)[C@@H]1O` [CMP-AEP], the “X-ray crystal structure, 1.95 Å” value on Tde-PntC (Tde1415) [1] is “Tde1415 and Tde1415:CMP-AEP have been deposited in the Protein Data Bank”.
On to `C[N+](C)(C)CCOP(=O)([O-])O` [P-Cho], for which the KS at Spn-LicC is listed as 6.4 ± 0.9 mM; on Ari-PntC (Ari1348), 4 ± 1 mM.
For the compound `Cc1ncc(COP(=O)(O)O)c(C=O)c1O` [PLP], the X-ray crystal structure result on Tde-PntC (Tde1415) [2] is “The AEPT domain of Tde1415 possesses PLP and the requisite active site features”.
